From ChEMBL document CHEMBL5465560, “Selectivity Literature for EUbOPEN Chemogenomic Library” (2024)

Legend:
[1] = target: Serine/threonine-protein kinase tousled-like 2 (Homo sapiens) (UniProt Q86UE8); assay: Selectivity interaction (Kinase panel (KiNativ target engagement assay in Jurkat cells)) EUB0001635a TLK2; assay type: cell-based; details: at 1 µM
[2] = target: Serine/threonine-protein kinase RIO2 (Homo sapiens) (UniProt Q9BVS4); assay: Selectivity interaction (KinomeScan (DiscoverX)) EUB0000695a RIOK2; details: at 100 nM
[3] = target: T1, Mitogen-activated protein kinase 12 (Homo sapiens) (UniProt P53778); assay: Selectivity interaction (KinomeScan (DiscoverX)) EUB0000695a MAPK12; details: at 100 nM
T1 sequence (whole entry): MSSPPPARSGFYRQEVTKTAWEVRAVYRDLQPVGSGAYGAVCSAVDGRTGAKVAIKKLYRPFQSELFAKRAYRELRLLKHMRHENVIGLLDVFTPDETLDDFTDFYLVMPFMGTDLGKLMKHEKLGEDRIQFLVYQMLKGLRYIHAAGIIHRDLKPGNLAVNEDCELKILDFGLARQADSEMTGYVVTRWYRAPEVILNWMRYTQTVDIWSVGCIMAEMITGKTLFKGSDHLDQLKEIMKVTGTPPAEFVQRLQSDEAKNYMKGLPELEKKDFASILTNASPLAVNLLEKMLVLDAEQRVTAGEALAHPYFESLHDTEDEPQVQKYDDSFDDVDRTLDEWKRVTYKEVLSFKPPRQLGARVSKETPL

[4] = target: T2, Serine/threonine-protein kinase 3 (Homo sapiens) (UniProt Q13188); assay: Selectivity interaction (KinomeScan (DiscoverX)) EUB0001079a STK3; details: at 1 µM
T2 sequence (whole entry): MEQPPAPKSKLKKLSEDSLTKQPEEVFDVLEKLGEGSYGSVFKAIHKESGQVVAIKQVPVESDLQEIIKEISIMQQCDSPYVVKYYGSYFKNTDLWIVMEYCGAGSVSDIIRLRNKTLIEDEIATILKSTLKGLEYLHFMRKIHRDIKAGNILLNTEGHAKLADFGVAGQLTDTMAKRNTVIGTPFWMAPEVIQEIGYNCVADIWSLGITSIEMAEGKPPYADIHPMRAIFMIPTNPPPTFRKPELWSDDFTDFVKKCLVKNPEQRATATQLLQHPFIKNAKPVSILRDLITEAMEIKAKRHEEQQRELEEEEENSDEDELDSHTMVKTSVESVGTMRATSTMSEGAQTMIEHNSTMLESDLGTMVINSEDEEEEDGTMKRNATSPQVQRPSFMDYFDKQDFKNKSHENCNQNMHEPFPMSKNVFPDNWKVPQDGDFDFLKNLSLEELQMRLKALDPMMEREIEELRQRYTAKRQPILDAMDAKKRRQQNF

[5] = target: Receptor-type tyrosine-protein kinase FLT3 (Homo sapiens) (UniProt P36888); assay: (§1) Selectivity interaction (Kinase panel (Z-LYTE Assay)) EUB0001632a FLT3; details: at 10 µM
[6] = tested on: T3, Receptor-type tyrosine-protein kinase FLT3 (Homo sapiens), P36888 [D835Y]; assay: as §1; details: at 10 µM
T3 sequence (whole entry): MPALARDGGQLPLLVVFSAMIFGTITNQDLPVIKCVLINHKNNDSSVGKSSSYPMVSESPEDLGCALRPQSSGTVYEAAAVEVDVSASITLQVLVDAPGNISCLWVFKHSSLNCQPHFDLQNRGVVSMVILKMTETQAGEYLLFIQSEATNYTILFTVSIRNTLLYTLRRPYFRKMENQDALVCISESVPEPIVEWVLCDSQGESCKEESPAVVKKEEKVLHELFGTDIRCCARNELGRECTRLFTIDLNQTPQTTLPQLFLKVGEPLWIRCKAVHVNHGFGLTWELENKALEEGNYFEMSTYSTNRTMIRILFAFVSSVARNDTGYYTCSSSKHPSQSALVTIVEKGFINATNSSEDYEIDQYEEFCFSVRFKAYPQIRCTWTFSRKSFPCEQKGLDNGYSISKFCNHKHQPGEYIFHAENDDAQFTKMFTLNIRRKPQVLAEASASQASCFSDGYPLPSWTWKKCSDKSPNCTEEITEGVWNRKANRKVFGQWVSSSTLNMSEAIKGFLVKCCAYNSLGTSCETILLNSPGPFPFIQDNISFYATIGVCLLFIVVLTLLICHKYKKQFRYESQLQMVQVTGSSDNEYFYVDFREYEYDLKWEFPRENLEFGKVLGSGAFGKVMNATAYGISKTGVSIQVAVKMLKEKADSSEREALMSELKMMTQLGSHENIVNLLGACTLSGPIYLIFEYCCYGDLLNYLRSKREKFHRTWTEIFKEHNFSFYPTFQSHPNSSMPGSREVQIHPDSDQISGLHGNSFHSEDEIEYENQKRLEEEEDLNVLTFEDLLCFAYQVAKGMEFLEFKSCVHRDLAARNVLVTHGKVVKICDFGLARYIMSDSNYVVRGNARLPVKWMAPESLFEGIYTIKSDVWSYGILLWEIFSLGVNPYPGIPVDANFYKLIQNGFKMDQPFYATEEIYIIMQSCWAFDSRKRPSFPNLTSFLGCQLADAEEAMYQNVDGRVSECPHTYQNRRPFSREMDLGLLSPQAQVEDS

[7] = target: T4, Cytoplasmic tyrosine-protein kinase BMX (Homo sapiens) (UniProt P51813); assay: Selectivity interaction (KinomeScan (DiscoverX)) EUB0000607a BMX; details: at 10 µM
T4 sequence (whole entry): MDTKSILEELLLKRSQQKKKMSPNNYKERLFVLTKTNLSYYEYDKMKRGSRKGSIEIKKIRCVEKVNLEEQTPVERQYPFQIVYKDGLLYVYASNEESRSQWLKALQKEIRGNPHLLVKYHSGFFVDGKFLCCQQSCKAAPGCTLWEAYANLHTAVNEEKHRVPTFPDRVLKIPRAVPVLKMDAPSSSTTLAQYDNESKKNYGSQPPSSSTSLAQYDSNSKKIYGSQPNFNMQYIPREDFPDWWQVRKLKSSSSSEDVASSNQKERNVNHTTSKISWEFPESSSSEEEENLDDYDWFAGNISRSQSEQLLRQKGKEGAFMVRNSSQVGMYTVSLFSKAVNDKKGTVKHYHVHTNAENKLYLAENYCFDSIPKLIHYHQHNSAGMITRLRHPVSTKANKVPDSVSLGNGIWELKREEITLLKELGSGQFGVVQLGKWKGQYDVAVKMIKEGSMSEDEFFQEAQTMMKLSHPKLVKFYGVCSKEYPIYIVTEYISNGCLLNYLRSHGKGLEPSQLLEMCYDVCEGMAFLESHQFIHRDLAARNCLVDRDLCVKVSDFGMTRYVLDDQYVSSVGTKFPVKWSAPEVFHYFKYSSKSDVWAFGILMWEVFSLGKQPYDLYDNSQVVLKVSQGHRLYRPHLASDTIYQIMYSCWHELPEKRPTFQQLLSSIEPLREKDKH

[8] = target: Tyrosine-protein kinase BTK (Homo sapiens, UniProt Q06187); assay: Selectivity interaction (KinomeScan (DiscoverX)) EUB0000618a BTK; details: at 10 µM
Tyrosine-protein kinase BTK, sequence (Q06187 whole entry): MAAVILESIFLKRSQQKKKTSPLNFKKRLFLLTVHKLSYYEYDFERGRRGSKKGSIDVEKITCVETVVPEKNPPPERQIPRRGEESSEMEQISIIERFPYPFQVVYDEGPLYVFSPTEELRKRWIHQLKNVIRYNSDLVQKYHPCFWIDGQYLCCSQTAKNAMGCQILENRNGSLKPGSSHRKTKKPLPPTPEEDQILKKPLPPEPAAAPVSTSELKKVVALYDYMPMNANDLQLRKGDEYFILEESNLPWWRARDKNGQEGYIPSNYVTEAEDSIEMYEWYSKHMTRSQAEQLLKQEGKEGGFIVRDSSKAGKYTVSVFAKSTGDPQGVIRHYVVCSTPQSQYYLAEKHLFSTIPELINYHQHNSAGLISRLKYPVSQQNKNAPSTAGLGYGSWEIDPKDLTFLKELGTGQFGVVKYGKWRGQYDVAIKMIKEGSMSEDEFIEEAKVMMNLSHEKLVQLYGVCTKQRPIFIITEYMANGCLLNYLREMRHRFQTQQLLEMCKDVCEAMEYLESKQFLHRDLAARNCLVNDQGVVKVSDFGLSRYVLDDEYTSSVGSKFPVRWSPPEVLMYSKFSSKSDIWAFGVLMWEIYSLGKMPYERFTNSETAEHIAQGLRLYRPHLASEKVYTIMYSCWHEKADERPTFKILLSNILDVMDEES

Serine/threonine-protein kinase tousled-like 2 (Homo sapiens), sequence (Q86UE8 whole entry, looked up): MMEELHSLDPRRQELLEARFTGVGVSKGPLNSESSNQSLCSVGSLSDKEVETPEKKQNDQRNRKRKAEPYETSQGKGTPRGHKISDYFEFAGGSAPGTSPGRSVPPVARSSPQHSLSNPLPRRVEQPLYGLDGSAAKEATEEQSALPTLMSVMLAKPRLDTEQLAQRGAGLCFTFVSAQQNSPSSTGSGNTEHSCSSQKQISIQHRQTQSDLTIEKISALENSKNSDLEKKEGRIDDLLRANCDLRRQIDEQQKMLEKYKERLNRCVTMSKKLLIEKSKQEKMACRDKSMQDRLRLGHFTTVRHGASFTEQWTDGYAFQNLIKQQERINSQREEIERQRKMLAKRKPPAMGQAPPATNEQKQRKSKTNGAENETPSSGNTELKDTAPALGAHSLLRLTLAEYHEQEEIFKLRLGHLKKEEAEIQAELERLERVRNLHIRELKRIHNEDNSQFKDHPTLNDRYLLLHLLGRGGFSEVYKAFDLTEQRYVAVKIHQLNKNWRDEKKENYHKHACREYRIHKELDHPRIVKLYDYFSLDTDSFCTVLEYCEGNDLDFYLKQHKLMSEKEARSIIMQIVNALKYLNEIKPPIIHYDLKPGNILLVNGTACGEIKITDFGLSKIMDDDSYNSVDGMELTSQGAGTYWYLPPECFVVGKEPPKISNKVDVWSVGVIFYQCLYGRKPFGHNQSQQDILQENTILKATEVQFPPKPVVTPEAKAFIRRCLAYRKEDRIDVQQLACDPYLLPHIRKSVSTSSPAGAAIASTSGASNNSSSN
Serine/threonine-protein kinase RIO2 (Homo sapiens), sequence (Q9BVS4 whole entry, looked up): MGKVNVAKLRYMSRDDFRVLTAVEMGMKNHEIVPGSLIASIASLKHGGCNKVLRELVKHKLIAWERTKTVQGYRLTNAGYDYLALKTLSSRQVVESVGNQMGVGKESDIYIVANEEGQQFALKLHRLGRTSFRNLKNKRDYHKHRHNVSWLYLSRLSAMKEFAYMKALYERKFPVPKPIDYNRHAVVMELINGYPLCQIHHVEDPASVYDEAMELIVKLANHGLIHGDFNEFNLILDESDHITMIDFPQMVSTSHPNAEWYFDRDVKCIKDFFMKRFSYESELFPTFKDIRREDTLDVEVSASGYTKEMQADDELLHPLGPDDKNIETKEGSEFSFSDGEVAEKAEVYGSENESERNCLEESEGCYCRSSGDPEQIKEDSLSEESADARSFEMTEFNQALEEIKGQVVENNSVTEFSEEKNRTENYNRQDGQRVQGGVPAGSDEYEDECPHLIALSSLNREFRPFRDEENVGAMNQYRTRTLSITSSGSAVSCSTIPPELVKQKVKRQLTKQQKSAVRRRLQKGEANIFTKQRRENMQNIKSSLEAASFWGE

Structure (SMILES): C=CC(=O)Nc1ccc(C(=O)Nc2[nH]nc3c2CN(C(=O)N[C@H](CN(C)C)c2ccccc2)C3(C)C)cc1
- % of engagement ([1]; Selectivity number of off-targets 0.0, Selectivity number of targets 233.0, Source Knowledge https://www.sciencedirect.com/science/article/pii/S2451945619300674?via%3Dihub): 6.8%
- % of engagement [1]: 13.7%

Structure (SMILES): Cc1cc(F)c(C(=O)Nc2cccc(-c3nncn3C(C)C)n2)cc1-n1cnc(C2CC2)c1
- % of control [2]: 100%
- % of control [3]: 100%

Structure (SMILES): Nc1cnc(N2CCc3cc(S(=O)(=O)Nc4c(F)cc(Cl)cc4F)cc(N4CCCC4=O)c32)nc1 [TP-020n]
- % of control [4]: 96%

Structure (SMILES): Cn1cc(-n2cnc3c(NCc4nc5cc(Cl)c(Cl)cc5[nH]4)nc(N4CCOCC4)nc32)cn1
- % of control [5]: 34.1%
- % of control [6]: 33.4%

Structure (SMILES): CNC(=O)Nc1ccc(-c2nc(N3CC4CCC(C3)O4)c3cnn(C4CCC5(CC4)OCCO5)c3n2)cc1
- % of control [7]: 83%

Structure (SMILES): O[C@H]1CC[C@H](Nc2ncc3nc(Nc4c(F)cc(F)cc4F)n([C@H]4CCOC4)c3n2)CC1
- % of control [8]: 100%
